This passage reports IC50 results from US8906944B2, “Compounds as tyrosine kinase modulators” (Allergan, Inc., priority 2009, dated 2014).

For orientation: IC50 means the point on the concentration scale where inhibition reaches its midpoint.

The structures appear in SMILES notation.

For experiment [1], the target named is T1, human VEGF receptor (VEGFR-2) (Homo sapiens, UniProt P35968).
T1 construct: The cytoplasmic domain of the human VEGF receptor (VEGFR-2) was expressed; His; made in house; host or cells: insect cells (baculovirus)
Briefly: VEGFR2 kinase assay. Type of experiment: biochemical. Particulars: His-VEGFR-2 cytoplasmic domain, 3.6 μM ATP; Table IV, amide or urea linker; read-out: VEGFR2 Enzyme IC50. Here is the method: The cytoplasmic domain of the human VEGF receptor (VEGFR-2) was expressed as a Histidine-tagged fusion protein following infection of insect cells using an H is engineered baculovirus. […] Kinase assays were performed in 96 well microtiter plates that were coated overnight with 30 µg of poly-Glu-Tyr (4:1) in 10 mM Phosphate Buffered Saline (PBS), pH 7.2-7.4. The plates were incubated with 1% BSA and then washed four times with PBS prior to starting the reaction. Reactions were carried out in 120 µL reaction volumes containing 3.6 µM ATP in kinase buffer (50 mM Hepes buffer pH 7.4, 20 mM MgCl2, 0.1 mM MnCl2 and 0.2 mM Na3 VO4). […] Reactions were initiated by the addition 0.5 ng of purified protein. Following a ten minute incubation at 25 degree. […] IC50 values for compound inhibition were calculated directly from graphs of optical density (arbitrary units) versus compound concentration following subtraction of blank values.

The next experiment addresses VEGFR1 (Homo sapiens, UniProt P17948). Briefly: VEGFR1 enzyme assay. Type of experiment: biochemical. The note with it: Table IV, amide or urea linker.
The target of another experiment is VEGFR2 (Homo sapiens, UniProt P35968). The experiment can be described thus: VEGF stimulated Ca++ signal in vitro (FLIPR).
The next experiment concerns the target PDGFβ (Homo sapiens, UniProt P09619). The experiment can be described thus: PDGFβ enzyme assay. Type of experiment: biochemical. Particulars: Table IV, amide or urea linker.

T1 sequence (P35968 786-1356 limits assumed): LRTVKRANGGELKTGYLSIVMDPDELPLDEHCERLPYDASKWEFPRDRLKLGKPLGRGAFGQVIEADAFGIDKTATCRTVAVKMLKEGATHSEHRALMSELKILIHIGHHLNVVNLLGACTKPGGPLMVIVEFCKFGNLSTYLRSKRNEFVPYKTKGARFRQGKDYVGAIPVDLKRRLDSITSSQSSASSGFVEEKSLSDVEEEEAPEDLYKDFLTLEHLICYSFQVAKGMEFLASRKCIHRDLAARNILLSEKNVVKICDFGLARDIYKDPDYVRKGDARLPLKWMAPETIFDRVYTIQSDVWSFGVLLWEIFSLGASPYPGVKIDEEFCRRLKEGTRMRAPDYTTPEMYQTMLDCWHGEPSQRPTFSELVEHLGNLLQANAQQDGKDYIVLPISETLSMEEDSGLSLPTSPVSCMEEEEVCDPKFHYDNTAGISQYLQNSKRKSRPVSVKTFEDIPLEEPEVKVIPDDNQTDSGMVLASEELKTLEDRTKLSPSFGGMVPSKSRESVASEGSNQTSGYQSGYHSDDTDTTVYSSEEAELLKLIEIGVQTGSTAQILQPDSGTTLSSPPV
VEGFR1, sequence (P17948 27-1338, species assumed): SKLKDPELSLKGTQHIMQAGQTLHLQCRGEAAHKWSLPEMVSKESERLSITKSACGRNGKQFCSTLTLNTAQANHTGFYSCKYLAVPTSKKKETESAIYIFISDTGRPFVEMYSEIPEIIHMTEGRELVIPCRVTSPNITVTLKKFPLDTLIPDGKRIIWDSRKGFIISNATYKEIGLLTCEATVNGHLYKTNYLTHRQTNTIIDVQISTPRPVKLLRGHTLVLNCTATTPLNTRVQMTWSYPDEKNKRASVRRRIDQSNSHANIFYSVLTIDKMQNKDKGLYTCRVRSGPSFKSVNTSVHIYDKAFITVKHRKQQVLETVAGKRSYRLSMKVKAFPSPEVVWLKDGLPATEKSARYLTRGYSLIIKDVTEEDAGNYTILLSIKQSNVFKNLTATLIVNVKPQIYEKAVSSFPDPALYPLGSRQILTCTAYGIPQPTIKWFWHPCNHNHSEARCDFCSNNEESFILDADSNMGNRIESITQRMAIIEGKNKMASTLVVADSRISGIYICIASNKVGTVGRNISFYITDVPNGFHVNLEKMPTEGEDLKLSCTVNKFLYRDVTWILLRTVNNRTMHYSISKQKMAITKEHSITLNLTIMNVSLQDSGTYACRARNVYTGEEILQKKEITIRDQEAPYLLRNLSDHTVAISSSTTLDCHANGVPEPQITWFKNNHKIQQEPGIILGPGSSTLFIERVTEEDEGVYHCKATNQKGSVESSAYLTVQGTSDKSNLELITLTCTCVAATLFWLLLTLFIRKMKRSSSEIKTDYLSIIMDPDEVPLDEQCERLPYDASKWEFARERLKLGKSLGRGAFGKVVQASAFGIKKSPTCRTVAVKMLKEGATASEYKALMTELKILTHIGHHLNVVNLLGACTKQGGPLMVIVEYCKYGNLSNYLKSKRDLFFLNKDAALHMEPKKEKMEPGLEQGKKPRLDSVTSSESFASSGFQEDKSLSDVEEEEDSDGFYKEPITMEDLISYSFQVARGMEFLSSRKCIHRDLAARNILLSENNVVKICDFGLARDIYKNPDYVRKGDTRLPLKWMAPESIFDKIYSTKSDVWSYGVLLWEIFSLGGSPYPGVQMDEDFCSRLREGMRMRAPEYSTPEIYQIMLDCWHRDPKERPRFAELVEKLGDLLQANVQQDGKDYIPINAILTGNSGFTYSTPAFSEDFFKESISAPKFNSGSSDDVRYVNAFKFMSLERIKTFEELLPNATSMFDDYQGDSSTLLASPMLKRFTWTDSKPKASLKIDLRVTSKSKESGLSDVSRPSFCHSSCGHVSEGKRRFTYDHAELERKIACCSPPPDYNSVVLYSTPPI
PDGFβ, sequence (P09619 33-1106): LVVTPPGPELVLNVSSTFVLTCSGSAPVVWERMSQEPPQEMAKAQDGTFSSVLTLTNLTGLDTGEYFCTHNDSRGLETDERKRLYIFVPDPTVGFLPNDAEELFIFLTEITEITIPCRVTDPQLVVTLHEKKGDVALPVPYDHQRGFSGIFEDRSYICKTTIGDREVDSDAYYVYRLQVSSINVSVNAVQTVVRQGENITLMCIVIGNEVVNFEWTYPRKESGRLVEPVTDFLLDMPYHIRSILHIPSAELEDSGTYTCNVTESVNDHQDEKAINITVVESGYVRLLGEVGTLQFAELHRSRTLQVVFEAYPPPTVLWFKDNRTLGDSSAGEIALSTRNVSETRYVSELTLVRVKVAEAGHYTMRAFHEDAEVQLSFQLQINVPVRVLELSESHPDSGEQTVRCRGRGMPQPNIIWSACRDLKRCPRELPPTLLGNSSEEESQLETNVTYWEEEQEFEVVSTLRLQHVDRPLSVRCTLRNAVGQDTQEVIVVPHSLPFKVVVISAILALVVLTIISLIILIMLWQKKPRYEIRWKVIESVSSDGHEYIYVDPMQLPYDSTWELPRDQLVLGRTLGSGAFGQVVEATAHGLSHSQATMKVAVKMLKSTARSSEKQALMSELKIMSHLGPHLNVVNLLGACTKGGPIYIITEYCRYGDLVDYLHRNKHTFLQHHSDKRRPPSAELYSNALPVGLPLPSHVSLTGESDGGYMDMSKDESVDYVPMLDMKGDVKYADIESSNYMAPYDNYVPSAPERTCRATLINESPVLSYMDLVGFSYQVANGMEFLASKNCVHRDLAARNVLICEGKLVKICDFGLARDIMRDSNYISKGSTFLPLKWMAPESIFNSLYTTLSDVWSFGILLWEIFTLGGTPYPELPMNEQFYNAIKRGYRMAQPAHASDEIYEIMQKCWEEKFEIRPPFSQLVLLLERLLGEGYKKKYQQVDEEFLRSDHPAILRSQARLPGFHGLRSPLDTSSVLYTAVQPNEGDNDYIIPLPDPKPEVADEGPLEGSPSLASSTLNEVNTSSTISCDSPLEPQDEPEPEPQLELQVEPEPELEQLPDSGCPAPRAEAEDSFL
VEGFR2, sequence (P35968 20-1356): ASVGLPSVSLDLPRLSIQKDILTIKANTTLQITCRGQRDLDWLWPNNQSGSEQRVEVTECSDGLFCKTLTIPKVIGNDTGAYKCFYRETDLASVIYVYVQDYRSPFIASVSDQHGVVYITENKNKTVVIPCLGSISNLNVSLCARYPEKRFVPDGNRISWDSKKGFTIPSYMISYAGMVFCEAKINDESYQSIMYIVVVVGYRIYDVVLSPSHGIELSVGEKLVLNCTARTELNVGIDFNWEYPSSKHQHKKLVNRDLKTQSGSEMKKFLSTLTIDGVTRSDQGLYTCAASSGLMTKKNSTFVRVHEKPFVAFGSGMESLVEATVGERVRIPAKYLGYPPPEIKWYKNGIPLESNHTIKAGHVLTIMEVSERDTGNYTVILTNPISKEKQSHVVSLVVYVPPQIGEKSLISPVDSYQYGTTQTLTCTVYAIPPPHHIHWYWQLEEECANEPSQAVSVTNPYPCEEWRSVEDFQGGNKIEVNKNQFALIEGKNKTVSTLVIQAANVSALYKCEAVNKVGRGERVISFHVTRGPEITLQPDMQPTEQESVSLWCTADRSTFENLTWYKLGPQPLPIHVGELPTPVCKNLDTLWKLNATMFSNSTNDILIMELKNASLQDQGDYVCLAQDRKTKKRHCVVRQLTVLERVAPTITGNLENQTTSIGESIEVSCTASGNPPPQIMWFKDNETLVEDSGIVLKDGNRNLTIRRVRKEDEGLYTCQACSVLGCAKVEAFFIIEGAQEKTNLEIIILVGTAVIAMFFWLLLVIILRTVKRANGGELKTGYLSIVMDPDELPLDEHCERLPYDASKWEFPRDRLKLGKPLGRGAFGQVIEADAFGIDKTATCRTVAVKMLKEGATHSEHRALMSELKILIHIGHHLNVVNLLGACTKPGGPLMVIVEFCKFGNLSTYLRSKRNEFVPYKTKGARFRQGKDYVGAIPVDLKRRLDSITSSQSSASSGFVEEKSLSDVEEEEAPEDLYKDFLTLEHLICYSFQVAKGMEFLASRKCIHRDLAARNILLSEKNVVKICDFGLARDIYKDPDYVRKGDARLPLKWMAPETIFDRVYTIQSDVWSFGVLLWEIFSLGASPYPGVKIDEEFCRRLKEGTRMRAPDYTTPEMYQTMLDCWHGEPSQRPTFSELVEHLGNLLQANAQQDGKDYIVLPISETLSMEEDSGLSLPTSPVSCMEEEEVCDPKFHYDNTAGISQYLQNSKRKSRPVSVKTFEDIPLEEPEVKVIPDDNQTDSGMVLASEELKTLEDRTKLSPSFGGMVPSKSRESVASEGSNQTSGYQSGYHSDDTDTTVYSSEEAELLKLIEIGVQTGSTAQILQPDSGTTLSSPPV

As for `COC(=O)[C@@H]1CCCN1CCCNC(=O)c1c[nH]c(-c2cc(Oc3ccc(F)c(NC(=O)c4occc4C)c3)ccn2)c1` [Example 188, methyl 1-[3-({[5-(4-{4-fluoro-3-[(3-methyl-2-furoyl)amino]phenoxy}pyridin-2-yl)-1H-pyrrol-3-yl]carbonyl}amino)propyl]pyrrolidine-2-carboxylate], the IC50 in experiment [1] was determined as 27 nM; at VEGFR1 it was 32 nM; against VEGFR2, 5 nM.
On to `Cc1ccc(F)c(NC(=O)Nc2ccc(Oc3ccnc(-c4cc(C(=O)NCCN)c[nH]4)c3)cc2F)c1` [Example 222, N-(2-aminoethyl)-5-{4-[3-fluoro-4-({[(2-fluoro-5-methylphenyl)amino]carbonyl}amino)phenoxy]pyridin-2-yl}-1H-pyrrole-3-carboxamide], for which the IC50 is 9 nM in experiment [1], 15 nM at VEGFR1 and 29 nM at PDGFβ.
The like results for `Cc1ccc(F)c(NC(=O)Nc2ccc(Oc3ccnc(-c4cc(C(=O)NCCCN)c[nH]4)c3)cc2F)c1` [Example 223, N-(3-aminopropyl)-5-{4-[3-fluoro-4-({[(2-fluoro-5-methylphenyl)amino]carbonyl}amino)phenoxy]pyridin-2-yl}-1H-pyrrole-3-carboxamide] were, in that order, 13 nM, 12 nM and 16 nM.
The like results for `COC(=O)C1CCCN1CCCNC(=O)c1c[nH]c(-c2cc(Oc3ccc(NC(=O)Nc4cc(C)ccc4F)c(F)c3)ccn2)c1` (stereo not drawn) [Example 228, methyl 1-(3-{[(5-{4-[3-fluoro-4-({[(2-fluoro-5-methylphenyl)amino]carbonyl}amino)phenoxy]pyridin-2-yl}-1H-pyrrol-3-yl)carbonyl]amino}propyl)pyrrolidine-2-carboxylate] were, in that order, 11 nM, 8 nM and 9 nM.
On to `Cc1ccc(F)c(NC(=O)Nc2ccc(Oc3ccnc(-c4cc(C(=O)NCCCC(=O)OCC(CO)(CO)CO)c[nH]4)c3)cc2)c1` [Example 234, 3-hydroxy-2,2-bis(hydroxymethyl)propyl 4-{[(5-{4-[4-({[(2-fluoro-5-methylphenyl)amino]carbonyl}amino)phenoxy]pyridin-2-yl}-1H-pyrrol-3-yl)carbonyl]amino}butanoate], for which the results for the IC50 (in experiment [1]; on VEGFR1; on PDGFβ) were 8 nM, 11 nM and 17 nM, respectively.
Take `Cc1ccc(F)c(NC(=O)c2ccc(F)c(Oc3ccnc(-c4cc(C(=O)NCCCO)c[nH]4)c3)c2)c1` [Example 244, 5-[4-(2-fluoro-5-{[(2-fluoro-5-methylphenyl)amino]carbonyl}phenoxy)pyridin-2-yl]-N-(3-hydroxypropyl)-1H-pyrrole-3-carboxamide]: the IC50 came out at 12 nM in experiment [1], 31 nM against VEGFR1 and 94 nM against PDGFβ.
For `Cc1ccc(F)c(NC(=O)Nc2ccc(Oc3ccnc(-c4cc(C(=O)NCCCN5CCCC5C(=O)O)c[nH]4)c3)cc2)c1` (stereo not drawn) [Example 247, 1-(3-{[(5-{4-[4-({[(2-fluoro-5-methylphenyl)amino]carbonyl}amino)phenoxy]pyridin-2-yl}-1H-pyrrol-3-yl)carbonyl]amino}propyl)pyrrolidine-2-carboxylic acid], the IC50 is 15 nM in experiment [1], 25 nM against VEGFR1 and 21 nM against PDGFβ.
Regarding `COC(=O)CC[C@H](NC(=O)c1c[nH]c(-c2cc(Oc3cc(C(=O)Nc4cc(C)ccc4F)ccc3F)ccn2)c1)C(=O)OC` [Example 249, dimethyl 2-[({5-[4-(2-fluoro-5-{[(2-fluoro-5-methylphenyl)amino]carbonyl}phenoxy)pyridin-2-yl]-1H-pyrrol-3-yl}carbonyl)amino]pentanedioate], the IC50 in experiment [1] stood at 33 nM; against VEGFR1, 46 nM; against PDGFβ, 55 nM.
With `Cc1ccc(F)c(NC(=O)Nc2ccc(Oc3ccnc(-c4cc(C(=O)NCCCN)c[nH]4)c3)cc2)c1` [Example 250, N-(3-aminopropyl)-5-{4-[4-({[(2-fluoro-5-methylphenyl)amino]carbonyl}amino)phenoxy]pyridin-2-yl}-1H-pyrrole-3-carboxamide], the IC50 was 24 nM in experiment [1], 8 nM at VEGFR1 and 54 nM at PDGFβ.
The matching figures for `Cc1ccc(F)c(NC(=O)Nc2ccc(Oc3ccnc(-c4cc(C(=O)NCCCNC(=O)OC(C)(C)C)c[nH]4)c3)cc2)c1` [Example 251, tert-butyl (3-{[(5-{4-[4-({[(2-fluoro-5-methylphenyl)amino]carbonyl}amino)phenoxy]pyridin-2-yl}-1H-pyrrol-3-yl)carbonyl]amino}propyl)carbamate]: 46 nM, 18 nM and 79 nM.
On to `Cc1ccc(F)c(NC(=O)c2ccc(F)c(Oc3ccnc(-c4cc(C(=O)NCCCN)c[nH]4)c3)c2)c1` [Example 252, N-(3-aminopropyl)-5-[4-(2-fluoro-5-{[(2-fluoro-5-methylphenyl)amino]carbonyl}phenoxy)pyridin-2-yl]-1H-pyrrole-3-carboxamide], for which the IC50 was determined as 24 nM in experiment [1], 25 nM against VEGFR1 and 99 nM at PDGFβ.
Take `Cc1ccc(F)c(NC(=O)c2ccc(F)c(Oc3ccnc(-c4cc(C(=O)NCCCNC(=O)OC(C)(C)C)c[nH]4)c3)c2)c1` [Example 253, tert-butyl {3-[({5-[4-(2-fluoro-5-{[(2-fluoro-5-methylphenyl)amino]carbonyl}phenoxy)pyridin-2-yl]-1H-pyrrol-3-yl}carbonyl)amino]propyl}carbamate]: the results for the IC50 (in experiment [1]; against VEGFR1; against PDGFβ) were 64 nM, 36 nM and 200 nM, respectively.
The matching figures for `Cc1ccc(F)c(NC(=O)c2ccc(F)c(Oc3ccnc(-c4cc(C(=O)NCCCN5CCOCC5)c[nH]4)c3)c2)c1` [Example 254, 5-[4-(2-fluoro-5-{[(2-fluoro-5-methylphenyl)amino]carbonyl}phenoxy)pyridin-2-yl]-N-(3-morpholin-4-ylpropyl)-1H-pyrrole-3-carboxamide]: 24 nM, 35 nM and 35 nM.
Take `CCNC(=O)[C@H](CCC(=O)O)NC(=O)c1c[nH]c(-c2cc(Oc3cc(C(=O)Nc4cc(C)ccc4F)ccc3F)ccn2)c1` [Example 255, 5-(ethylamino)-4-[({5-[4-(2-fluoro-5-{[(2-fluoro-5-methylphenyl)amino]carbonyl}phenoxy)pyridin-2-yl]-1H-pyrrol-3-yl}carbonyl)amino]-5-oxopentanoic acid]: the IC50 came out at 28 nM in experiment [1], 44 nM on VEGFR1 and 185 nM against PDGFβ.
Take `CCNC(=O)[C@H](CCC(=O)OC(C)(C)C)NC(=O)c1c[nH]c(-c2cc(Oc3cc(C(=O)Nc4cc(C)ccc4F)ccc3F)ccn2)c1` [Example 256, tert-butyl 5-(ethylamino)-4-[({5-[4-(2-fluoro-5-{[(2-fluoro-5-methylphenyl)amino]carbonyl}phenoxy)pyridin-2-yl]-1H-pyrrol-3-yl}carbonyl)amino]-5-oxopentanoate]: the IC50 in experiment [1] was found to be 55 nM; at VEGFR1 it was 24 nM; against PDGFβ, 167 nM.
As to `Cc1ccc(F)c(NC(=O)c2ccc(F)c(Oc3ccnc(-c4cc(C(=O)N[C@@H](CCC(=O)OC(C)(C)C)C(=O)O)c[nH]4)c3)c2)c1` [Example 257, 5-tert-butoxy-2-[({5-[4-(2-fluoro-5-{[(2-fluoro-5-methylphenyl)amino]carbonyl}phenoxy)pyridin-2-yl]-1H-pyrrol-3-yl}carbonyl)amino]-5-oxopentanoic acid], the IC50 was 53 nM in experiment [1], 18 nM against VEGFR1 and 180 nM against PDGFβ.
Take `Cc1ccc(F)c(NC(=O)c2ccc(F)c(Oc3ccnc(-c4cc(C(=O)NCCC(=O)O)c[nH]4)c3)c2)c1` [Example 258, 3-[({5-[4-(2-fluoro-5-{[(2-fluoro-5-methylphenyl)amino]carbonyl}phenoxy)pyridin-2-yl]-1H-pyrrol-3-yl}carbonyl)amino]propanoic acid]: the IC50 in experiment [1] was determined as 36 nM; on VEGFR1, 21 nM; at PDGFβ, 41 nM.
On to `COC(=O)CCNC(=O)c1c[nH]c(-c2cc(Oc3cc(C(=O)Nc4cc(C)ccc4F)ccc3F)ccn2)c1` [Example 259, methyl 3-[({5-[4-(2-fluoro-5-{[(2-fluoro-5-methylphenyl)amino]carbonyl}phenoxy)pyridin-2-yl]-1H-pyrrol-3-yl}carbonyl)amino]propanoate], for which the IC50 in experiment [1] was 35 nM; on VEGFR1, 23 nM; against PDGFβ, 47 nM.
Consider `Cc1ccc(F)c(NC(=O)Nc2ccc(Oc3ccnc(-c4csc(C(=O)NCCC(=O)O)c4)c3)cc2)c1` [Example 278, 3-{[(4-{4-[4-({[(2-fluoro-5-methylphenyl)amino]carbonyl}amino)phenoxy]pyridin-2-yl}-2-thienyl)carbonyl]amino}propanoic acid], for which the values for the IC50 (in experiment [1]; at VEGFR1; at PDGFβ) were 14 nM, 15 nM and 16 nM, respectively.
